Measurements: patent US20010012631A1, “Plant clonal lines and plants having elevated secondary metabolite levels” (University of Massachusetts Medical Center, a Massachusetts …, priority 1997, published 2001)
Values joined by “and” are separate entries in the source; they are usually repeats but may differ in a detail not shown here. Equal entries are not always repeated. Where two headings read alike, the source gives them in different places.

Key:
[1] = system: rosemary clonal line R-16; assay: RA content of shoot propagules, rosemary clonal line R-16; assay type: cell-based; conditions: 30 to 45 days
Protocol: (§1) Samples of Pseudomonas-treated and untreated control shoots from each line were assayed for rosmarinic acid content and proline content. Rosmarinic acid was extracted from 50 mg of fresh shoot tissue using 2 ml of 50% (v/v) methanol and incubating for 1 hour at 55° C. One ml of the methanol extract was diluted 1:18 and the absorbance of the diluted extract was measured at 333 nm in a Genesys spectrophotometer (Spectronic Instruments, Rochester, N.Y.). The concentration of RA in the extract was calculated using an extinction coefficient of ε333=19,000 τmol^−1cm^−1. Values for the concentration of RA for each treatment/clonal line shown in the Tables and Figures of this application are the average of at least 5 separate extracts. Total rosmarinic acid content was expressed as % g/g fresh weight (FW) of tissue.
(§2) Three clonal thyme lines and five rosemary clonal lines were isolated and maintained in culture as described in U.S. application Ser. No. 08/771,241, filed Dec. 20, 1996 and incorporated herein by reference.
(§3) Individual shoot propagules of each clonal line were transferred to half-strength hormone-free MS media supplemented with A2C and cultured for 30 to 45 days. RA content and morphological abnormalities were determined at the end of the culture period as described in Example 1.

[2] = system: rosemary clonal line R-35; assay: RA content of shoot propagules, rosemary clonal line R-35; assay type: cell-based; conditions: 30 to 45 days, ± SD
Protocol: as §1, §2, §3

[3] = system: regenerated plants of oregano clone 0-1 and five tolerant clones; assay: Field treatment: RA content of leaf tissue of regenerated oregano plants; assay type: in vivo; conditions: field plants sprayed with solution of A2C about 50 μm, Nonidet P40, EMC about 0.5% w/v; leaf tissue after 7 days; fresh weight and dry weight basis
Protocol: About 100 regenerated plants of oregano clone 0-1, and the five tolerant clones of Example 7 are removed from a greenhouse, and planted outdoors in a field during the spring, and summer growing season. Plantings are carried out using a randomized block design. Plants are fertilized weekly, but are not irrigated. About 7 days before flower emergence, half of the plants of each line are sprayed with an aqueous solution comprising A2C, Nonidet P40™, and EMC prepared from strain F. A2C is present at about 50 μm, and EMC is present at about 0.5% w/v. Each plant receives about 1 to 2 ml on the upper surface of the leaves. The remaining control plants are treated by spraying an aqueous solution that contains no A2C and no EMC. Spraying is carried out such that there is little or no carryover to adjacent plants.
After 7 days, leaf tissue from A2C-treated and control plants is harvested, and analyzed for total phenolic content, and RA content as described in Example 7. […] The plant-to-plant variation among A2C-treated plants of each line is about 5% to about 15%.

rosemary clonal line R-7 = assay: RA content of shoot propagules, rosemary clonal line R-7; assay type: cell-based; conditions: 30 to 45 days, ± SD
Protocol: as §1, §2, §3

thyme clonal line M-3 = assay: RA content of shoot propagules, thyme clonal line M-3; assay type: cell-based; conditions: 30 to 45 days
Protocol: as §1, §2, §3

[4] = system: rosemary clonal line R-15; assay: RA content of shoot propagules, rosemary clonal line R-15; assay type: cell-based; conditions: 30 to 45 days
Protocol: as §1, §2, §3

oregano clonal line 0-4 = assay type: cell-based; conditions: ± SD; for RA Levels: 30 days (Example 3)
Protocol: (§4) A mucoid, non-pathogenic Pseudomonas sp. strain was isolated as a contaminant of an oregano shoot culture. This Pseudomonas sp. was termed strain F. This strain was used in selecting Pseudomonas tolerant clonal lines. Strain F was grown on yeast extract-mannitol medium (Difco, Inc., Detroit, Mich.) until the inoculum density was about 10^9 colony forming units/mL. The bacterial suspension was diluted 100-fold in sterile distilled water and about 2.5 ml was dispensed into petri plates. Individual shoots of each clonal line at about 30 days of subculture were removed by cutting at the basal end and then inoculated by dipping the cut end into the diluted bacterial suspension. Inoculated shoots were then transferred to half-strength hormone-free MS medium, which induces root formation, and incubated in a growth room at 23° C., on a 16/8 hours day/night schedule. About 40 shoots of each clone were inoculated. Control shoots of each clonal line were transferred to the same medium, but were not exposed to bacteria.
as §1
(§5) Individual shoot tissue propagules of each clonal line were transferred to half strength hormone-free MS medium supplemented with 100 μM A2C. RA content, proline content, and morphological abnormalities were determined as described in Example 1.
(§6) Shoot tissue from oregano lines 0-4 and 0-5 was also cultured in the presence of A2C for 30 days. Samples of treated and control shoots were then assayed for RA content on a fresh weight basis and for morphological abnormalities.
(§7) Individual shoot tissue propagules of each clonal line were transferred to half strength hormone-free MS medium supplement with A2C. RA content and morphological abnormalities were determined as described in Example 1.

oregano clonal line 0-5 = assay type: cell-based; conditions: for RA Levels: 30 days (Example 3)
Protocol: as §4, §1, §5, §6, §7

thyme clonal line T-12 = assay: RA content of shoot propagules, thyme clonal line T-12; assay type: cell-based; conditions: 30 to 45 days, ± SD
Protocol: as §1, §2, §3

Question: How did the “RA Levels” value ([1]; rosemary R-16, A2C 100 μM, ± SD) turn out when O=C(O)C1CCN1 (stereo not shown) [A2C, azetidine-2-carboxylic acid] was run?
Answer: Its value is 10.4 ± 1.9 mg/g FW.

Question: What about the “RA Levels” value ([1]; rosemary R-16, A2C 200 μM) of the same compound?
Answer: The value was “inhibited”.

Question: What about the “RA Levels” value ([2]; rosemary R-35, A2C 100 μM) of the same compound?
Answer: Its value is 12.1 ± 1.4 mg/g FW.

Question: What about the “RA Levels” value ([2]; rosemary R-35, A2C 200 μM) of the same compound?
Answer: The value was 10.9 ± 0.9 mg/g FW.

Question: And the “RA vs control tissue” value [3]?
Answer: Its value is “at least 2 fold”.

Question: And the “RA Levels” value (rosemary clonal line R-7; rosemary R-7, A2C 100 μM)?
Answer: The value was 6.8 ± 1.1 mg/g FW.

Question: What about the “RA Levels” value (rosemary clonal line R-7; rosemary R-7, A2C 200 μM) of the same compound?
Answer: Its value is 7.9 ± 2.0 mg/g FW.

Question: What about the “RA Levels” value (thyme clonal line M-3; thyme M-3, A2C 100 μM, ± SD) of the same compound?
Answer: Its value is 2.4 ± 0.5 mg/g FW.

Question: What about the “RA Levels” value (thyme clonal line M-3; thyme M-3, A2C 200 μM) of the same compound?
Answer: The value was “inhibited”.

Question: And the “RA Levels” value ([4]; rosemary R-15, A2C 100 μM, ± SD)?
Answer: Its value is 9.4 ± 0.6 mg/g FW.

Question: And the “RA Levels” value ([4]; rosemary R-15, A2C 200 μM)?
Answer: The value was “inhibited”.

Question: And the RA (oregano clonal line 0-4; line 0-4, 100 μM A2C, day 30 (Example 2))?
Answer: Its RA is 4.3 mg/g FW and 4.3 ± 0.7 mg/g FW.

Question: What about the “RA Levels” value (oregano clonal line 0-4; line 0-4, A2C 100 μM) of the same compound?
Answer: Its value is 6.4 ± 0.8 mg/g FW.

Question: And the “RA Levels” value (oregano clonal line 0-4; line 0-4, A2C 200 μM)?
Answer: Its value is 6.8 ± 0.7 mg/g FW.

Question: And the RA (oregano clonal line 0-5; line 0-5, 100 μM A2C, 30 days, remaining tissue portions (primarily shoot tips) (Example 2), ± SD)?
Answer: The RA was 3.2 mg/g FW and 3.2 ± 0.4 mg/g FW.

Question: What about the “RA Levels” value (oregano clonal line 0-5; line 0-5, A2C 100 μM, ± SD) of the same compound?
Answer: The value was 3.1 ± 0.5 mg/g FW.

Question: What about the “RA Levels” value (oregano clonal line 0-5; line 0-5, A2C 200 μM) of the same compound?
Answer: Its value is “inhibited”.

Question: What about the “RA Levels” value (thyme clonal line T-12; thyme T-12, A2C 100 μM) of the same compound?
Answer: The value was 4.1 ± 0.5 mg/g FW.

Question: And the “RA Levels” value (thyme clonal line T-12; thyme T-12, A2C 200 μM)?
Answer: The value was 5.1 ± 0.5 mg/g FW.
